Literature values, collected in patent US20050100594A1, “Pharmaceutical formulation containing muscle relaxant and COX-II inhibitor” (priority 2003, published 2005).
Where a name gives a salt, the structure may show the parent alone.

Tested on: skeletal muscle fibers, neuromuscular junction, monosynaptic spinal reflexes
Conditions: animal models

Clc1ccc2nsnc2c1NC1=NCCN1 [Tizanidine, 5-chloro-4-(2-imidazolin-2-ylamino)-2,1,3-benzothiodiazole hydrochloride]
effect on monosynaptic spinal reflexes: no major effect
effect on skeletal muscle fibers or the neuromuscular junction: no direct effect
